What all share (assay): growth of human tumour cells (NCI), 48 h
Assay [1] relates to CAKI-1 renal.
In assay [2] the test system is OVCAR-8 ovarian.
Assay [3] concerns U251 CNS.
The test system of assay [4] is NCI-H460 lung.
Assay [5] relates to COLO 205 colon.
The test system of assay [6] is A549 NSCLC.
Assay [7] concerns NCI-H522 lung.
For assay [8], the system named is A498 renal.
For assay [9], the system named is RXF 393 renal.
Assay [10] relates to UACC-257 melanoma.

Each structure is given as a SMILES string. Values joined by “and” are separate entries in the source; they are usually repeats but may differ in a detail not shown here. Equal values may be shown once.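 Grown in 96-well plates, cells were treated for 48 hours with each compound at five concentrations. Insufficient inhibition: endpoint recorded as highest concentration tested. Here, GI50 denotes the concentration required for 50% inhibition of growth. TGI denotes the concentration required for complete inhibition of growth.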

Regarding `CC(=O)OC1(C#N)CC2OC1C1C2N1C(=O)c1ccccc1` (centres undefined), the TGI in assay [1], in [2], in [3], in assay [4], in assay [5] and in assay [6] was greater than 100 µM throughout. In addition, the TGI in assay [7], in [8] and in assay [9] was greater than 100 µM each time.

On to `O=C1Cc2cc(CCn3ccnc3)c(Cl)cc2N1`, for which the GI50 in assay [1] was 6.32 µM; in assay [2] it was 24.1 µM; in assay [3], 8.24 µM; in assay [10], 5.65 µM; in assay [4] it was 16.1 µM; in [5], 15.1 µM. In addition, the GI50 in assay [6] was 7.63 µM; in assay [7], 4.74 µM; in [8], 2.19 µM; in assay [9] it was 6.28 µM. In addition, the TGI in assay [1], in assay [2], in assay [3], in assay [10], in [4] and in assay [5] was greater than 100 µM throughout. Besides, the TGI in assay [6] is greater than 100 µM; in assay [7], 47.9 µM; in [8], 61.1 µM; in assay [9], greater than 100 µM.

With `Nc1nc(-c2ccccc2)c(-c2ccccc2)c(-c2nc(N)nc(-c3ccccc3)c2-c2ccccc2)n1`, the TGI in [1], in assay [2], in assay [3], in assay [10], in assay [4] and in assay [5] was greater than 100 µM each time. Moreover, the TGI in assay [6], in [7], in assay [8] and in assay [9] was greater than 100 µM in each case.

Regarding `N/C(=N\O)c1ncc(-c2ccc(C(F)(F)F)cc2)c(NC2CCCCCC2)n1`, the GI50 in [1] was 5.71 µM and 1.69 µM; in assay [2], 4.6 µM and 2.19 µM; in assay [3] it was 4.35 µM and 1.83 µM; in assay [10], 3.23 µM; in assay [4] it was 6.6 µM and 2.6 µM; in assay [5] it was 3.44 µM. For the same molecule, the GI50 in [6] was 2.34 µM; in assay [7], 1.92 µM; in [8], 1.96 µM; in assay [9], 2.74 µM. In addition, the TGI in assay [1] worked out at 8.1 µM; in [2], 13.4 µM; in assay [3] it was 7.51 µM; in assay [10] it was 13.2 µM; in assay [4] it was 9.34 µM; in assay [5], 10.6 µM. Besides, the TGI in [6] is 11.1 µM; in assay [7] it was 7.69 µM; in assay [8] it was 15.8 µM; in assay [9], 11.6 µM.

For `COc1ccc2c(c1)C(=O)c1c-2n(CCCN=[N+]=[N-])c(=O)c2ccccc12`, the GI50 in assay [1] is 49.7 µM; in assay [2], 73 µM; in assay [3], 27.5 µM; in [10] it was greater than 100 µM; in [4], 4.86 µM; in assay [5], 34.6 µM. In addition, the GI50 is 52.2 µM in [6], 10.8 µM in assay [7], 21.1 µM in [8] and 89.8 µM in [9]. Moreover, the TGI in assay [1], in assay [2], in assay [3], in [10], in assay [4] and in [5] was greater than 100 µM in each case. Also, the TGI in assay [6] was greater than 100 µM; in assay [7], greater than 100 µM; in assay [8] it was 69.2 µM; in assay [9], greater than 100 µM.

`O=S(=O)(NCCNc1nccc(-c2c(-c3cccc(O)c3)nc3sccn23)n1)c1ccc(F)cc1`: the GI50 in [1] was 3.69 µM; in assay [2] it was 4.61 µM; in assay [3], 7.48 µM; in assay [10] it was 0.568 µM; in [4], 4.2 µM; in assay [5], 0.779 µM. Also, the GI50 was 3.51 µM in [6], 6.44 µM in assay [7], 7.58 µM in [8] and 2.44 µM in assay [9]. For the same molecule, the TGI in assay [1] was 40.5 µM; in assay [2], 39.3 µM; in assay [3] it was 49.3 µM; in [10] it was 16.5 µM; in [4], 22.8 µM; in assay [5], 11.5 µM. Besides, the TGI in assay [6] came out at 36.1 µM; in assay [7], 27.1 µM; in assay [8], 25.2 µM; in [9] it was 12.5 µM.

Turning to `O=C1NC(=NCc2cccs2)SC1Cc1ccc2ncccc2c1` (centres undefined), the GI50 in [1] is 19.5 µM; in assay [2], greater than 25 µM; in assay [3] it was 17.6 µM; in assay [10], 15.5 µM; in assay [4], 11.8 µM; in assay [5], 10.2 µM. The GI50 in assay [6] was 18.5 µM; in assay [7], 16.1 µM; in [8], 13.1 µM; in assay [9] it was greater than 19.3 µM. Also, the TGI in assay [1], in [2], in assay [3], in assay [10], in [4] and in [5] was greater than 25 µM throughout. The TGI in assay [6], in assay [7], in assay [8] and in [9] was greater than 25 µM in each case.

For the molecule `O=C1NC(=NCC(CO)c2ccccc2)S/C1=C\c1ccc2ncccc2c1` (centres undefined), the GI50 in assay [1] was greater than 25 µM; in assay [2], greater than 25 µM; in assay [3] it was 9.91 µM; in assay [10] it was greater than 25 µM; in assay [4] it was greater than 16.1 µM; in assay [5], 7.77 µM. For the same molecule, the GI50 in assay [6] was 16.2 µM; in assay [7], greater than 14.1 µM; in assay [8], greater than 15.3 µM; in assay [9] it was greater than 20.3 µM. Further, the TGI in [1], in assay [2], in assay [3], in [10], in [4] and in assay [5] was greater than 25 µM throughout. Further, the TGI in assay [6], in [7], in assay [8] and in assay [9] was greater than 25 µM in each case.

The values above are taken from PubChem BioAssay (NCI).
